Laboratory results taken from US9284297B2, “Halofuginone analogs for inhibition of tRNA synthetases and uses thereof” (President and Fellows of Harvard College, priority 2008, dated 2016).

How the values were obtained:
[1] = target: T1, Prolyl-tRNA synthetase (EPRS) purified from rabbit liver (Oryctolagus cuniculus, UniProt G1T2I4); assay: Purified EPRS, 14C-labeled proline incorporation into tRNA; assay type: biochemical; details: 10 μM, 4 μM, 1 μM HF
T1 construct: Prolyl-tRNA synthetase (EPRS) purified from rabbit liver; from tissue; host or cells: rabbit liver
T1 sequence (G1T2I4 1-1447): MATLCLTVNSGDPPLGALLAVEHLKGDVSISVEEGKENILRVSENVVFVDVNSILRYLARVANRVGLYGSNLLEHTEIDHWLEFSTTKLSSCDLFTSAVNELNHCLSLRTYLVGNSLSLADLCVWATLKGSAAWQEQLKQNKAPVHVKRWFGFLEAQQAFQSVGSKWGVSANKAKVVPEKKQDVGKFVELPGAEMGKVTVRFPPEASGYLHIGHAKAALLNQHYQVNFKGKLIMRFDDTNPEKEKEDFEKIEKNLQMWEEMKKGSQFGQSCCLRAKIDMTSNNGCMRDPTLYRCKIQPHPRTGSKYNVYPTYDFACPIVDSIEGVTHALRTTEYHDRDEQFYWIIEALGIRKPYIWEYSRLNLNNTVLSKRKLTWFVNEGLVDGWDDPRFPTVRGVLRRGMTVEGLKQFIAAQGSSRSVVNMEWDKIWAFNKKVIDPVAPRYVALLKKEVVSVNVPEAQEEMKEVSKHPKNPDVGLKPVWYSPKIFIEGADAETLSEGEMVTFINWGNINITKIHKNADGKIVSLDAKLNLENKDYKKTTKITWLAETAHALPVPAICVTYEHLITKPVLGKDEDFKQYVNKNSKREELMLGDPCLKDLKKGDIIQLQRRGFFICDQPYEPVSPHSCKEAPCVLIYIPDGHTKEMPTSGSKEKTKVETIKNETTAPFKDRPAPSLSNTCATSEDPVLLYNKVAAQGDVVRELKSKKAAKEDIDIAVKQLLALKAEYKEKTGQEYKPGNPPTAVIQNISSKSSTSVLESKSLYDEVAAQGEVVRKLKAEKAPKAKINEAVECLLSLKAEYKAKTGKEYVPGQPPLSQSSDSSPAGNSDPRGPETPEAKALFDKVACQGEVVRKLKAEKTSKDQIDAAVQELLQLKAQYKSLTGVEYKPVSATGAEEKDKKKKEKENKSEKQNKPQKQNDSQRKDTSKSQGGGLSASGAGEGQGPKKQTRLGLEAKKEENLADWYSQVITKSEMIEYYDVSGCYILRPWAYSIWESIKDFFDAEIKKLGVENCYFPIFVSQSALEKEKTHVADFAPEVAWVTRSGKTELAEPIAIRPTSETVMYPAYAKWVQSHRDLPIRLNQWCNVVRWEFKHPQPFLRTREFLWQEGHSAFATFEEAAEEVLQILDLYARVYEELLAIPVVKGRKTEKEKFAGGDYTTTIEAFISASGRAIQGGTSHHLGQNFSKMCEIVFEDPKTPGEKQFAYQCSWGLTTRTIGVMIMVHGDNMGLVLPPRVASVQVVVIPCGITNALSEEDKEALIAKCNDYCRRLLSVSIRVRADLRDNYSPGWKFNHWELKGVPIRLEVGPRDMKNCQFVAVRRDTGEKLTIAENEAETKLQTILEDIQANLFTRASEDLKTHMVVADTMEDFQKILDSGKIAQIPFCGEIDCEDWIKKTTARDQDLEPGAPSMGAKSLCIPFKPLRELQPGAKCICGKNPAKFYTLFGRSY
Procedure: Purified enzyme was incubated with 100 μg/ml bovine tRNA, 50 μM ^14C-labeled proline, 5 mM ATP, and 10 mM MgCl2 for 20 minutes. Charged tRNA was isolated by precipitation on Whatman filter paper and washing with cold 5% TCA. TCA precipitable counts were assayed by scintillation counting.

[2] = target: T2, prolyl-tRNA synthetase (EPRS) (Oryctolagus cuniculus, UniProt G1T2I4); assay: Incorporation of 14C-labeled proline into tRNA in rabbit reticulocyte lysate; assay type: biochemical; details: crude in vitro translation system
T2 construct: from tissue; host or cells: rabbit reticulocyte lysate
T2 sequence (G1T2I4 1-1447): T1 sequence (G1T2I4 1-1447)
Procedure: Total RNA was extracted with acidic phenol-chloroform and tRNA was isolated using miRVANA microRNA isolation kit. Radioisotope incorporation into tRNA was measured in a scintillation counter.

dermal ECM deposition = details: introduced intraperitoneally, added to food, or applied locally; cited from earlier work
adjuvant-driven EAE = assay: Adjuvant-driven experimental autoimmune encephalomyelitis (EAE), MOG33-55 immunization; assay type: in vivo, mice
Excerpt: The ability of systemic HF treatment to block IL-17 expression and associated autoimmune inflammation in vivo was examined using two distinct models of experimental autoimmune encephalomyelitis (EAE). […] The second model, a passive model of EAE induction, is initiated by the transfer of myelin proteolipid protein (PLP)-reactive T cells into lymphopenic hosts.
Adjuvant-driven EAE was induced in 8 week-old wild-type B6 mice purchased from Charles River laboratories (Kingston, N.Y.) by subcutaneous injection of […] peptide emulsified in Incomplete Freund's Adjuvant (IFA) plus 5 mg/ml heat-killed M. tuburculosis (BD Biosciences) in both dorsal flanks as described in Veldhoen et al. (Nat. Immunol. 7(11):1151-1156, 2006).
Mice were injected daily with HF (2 μg/mouse) or vehicle control (DMSO) i.p. Clinical signs of EAE were assessed according to the following score: 0, no signs of disease; 1, flaccid tail; 2, weak gait/hind limb paresis; 3, hind limb paralysis; 4, tetraplegia; 5, moribund. Cytokine production during EAE was determined either in peripheral T cells isolated from spleen or lymph nodes of mice prior to disease onset (day 6-10) or in mononuclear cells isolated from the brain and spinal cords of mice with severe disease (clinical score ≧2) between days 15-20. Briefly, splenocytes were stained for intracellular cytokines following erythrocyte lysis with ammonium chloride buffer. T cells were isolated from brain and spinal cords of mice with active EAE following perfusion with cold PBS. Minced CNS tissue was digested with liberase C1 (0.33 mg/ml, Roche Diagnostics) or collagenase D (10 mg/ml, Roche Diagnostics) at 37° C. for 30-45 minutes. Cell suspensions were passed through 70 μm cell strainers (VWR) and fractionated by 70%/30% Percoll gradient centrifugation. Mononuclear cells were collected from the interphase, washed, and used for intracellular cytokine analysis.

[3] = tested on: CD4+ CD25− T cells (Th1, Th2, iTreg differentiation, proliferation, CD25), CD8+ T cells, B cells; details: cited from earlier work

In the case of O=C(CC1NCCCC1O)Cn1cnc2cc(Br)c(Cl)cc2c1=O (centres unmarked) [Compound 1, 7-bromo-6-chloro-3-[3-(3-hydroxy-2-piperidinyl)-2-oxopropyl]-4(3H)-quinazolinone], the “inhibition of purified EPRS (TCA precipitable counts)” value [1] is listed as “directly inhibits purified mammalian EPRS”, the “inhibition of 14C proline incorporation into tRNA” value [2] is listed as “inhibitor of prolyl-tRNA synthetase (EPRS)” and the “dermal ECM deposition” value (dermal ECM deposition) is listed as “reduces excess dermal ECM deposition”. For the same molecule, the “IL-17 and IFNγ expression in T cells of lymph nodes and CNS” value (adjuvant-driven EAE; 2 μg HF daily i.p.) was “impaired IL-17 production but did not affect IFNγ expression”, the “EAE disease severity and frequency of onset” value (adjuvant-driven EAE; 2 μg HF daily, ˜0.1 mg/kg, i.p.) was “significantly reduced both the severity of adjuvant-driven EAE disease and frequency of disease onset” and the “EAE, HF not introduced until day 10 following immunization” value (adjuvant-driven EAE; treatment from day 10) was “controls autoimmune inflammation even after inflammatory pathogenesis is evident”. For the same molecule, the “EAE, HF injection terminated at day 10 following immunization” value (adjuvant-driven EAE; treatment until day 10) was “exerts a protective effect that extends well beyond the time of treatment” and the “concentrations that generally inhibit CD4+ T cell, CD8+ T cell, and B220+ B cell activation” value [3] was 20 to 40 nM.
